Assay results reported in patent publication US20190343873A1, “SEQUENCE-SELECTIVE GENE EXPRESSION REGULATORS” (KYOTO UNIVERSITY, priority 2018, published 2019).

What was measured:
[1] = system: HEK293T cells; experiment: Transcriptome analysis (microarray) of cells treated with Bi-PIPs; type: cell-based, human; conditions: 1 μM, 15 hours; for downregulated transcripts: criteria <−2-fold change and <0.05 P value vs vehicle; for most upregulated protein-coding gene among uniquely activated transcripts: criteria >1.5- or <−1.5-fold change, FIG. 7A; for upregulated transcripts: criteria >2-fold change and <0.05 P value vs vehicle; for change in global gene expression (in words) / transcripts commonly upregulated by both Bi-PIP1 and Bi-PIP2: microarray
Description: Considering the fundamental role of P300/CBP as the transcriptional coactivator to activate gene expression, transcriptome analyses of total RNA extracted from cells (HEK293T cells) treated with Bi-PIPs were performed. […]
HEK293T line was purchased from ATCC and maintained in DMEM (Thermo Fisher Scientific) supplemented with 10% (v/v) fetal bovine serum (FBS, Sigma Aldrich) at 37° C. with 5% CO2. For the Bi-PIP treatment, the cells were seeded on 24 well plates (2×10^5 cells/well). After one day, 1 μM of each Bi-PIP and 4 μM of Endo-Porter (10% polyethylene glycol form, Gene Tools) were added. As a vehicle, 0.1% DMSO (v/v) was used. After 15 hours of Bi-PIP treatment, RNA was extracted using FastGene™ RNA Basic Kit (Nippon Genetics) following manufacture's instruction.
The quality of RNA was checked with Bioanalyzer (Agilent Technologies) using Agilent RNA 6000 Pico Kit (Agilent Technologies). The total RNA was processed by GeneChip WT PLUS Reagent Kit (Affymetrix) and hybridized to Human Gene 2.1 ST Array Strip (Affymetrix) using GeneChip Hybridization, Wash, and Stain Kit (Affymetrix). Fluidics and scanning were conducted in GeneAtlas System (Affymetrix) using GeneChip Hybridization, Wash, and Stain Kit (Affymetrix). Data normalization, summarization and comparison were performed using Transcriptome Analysis Console v4 (Affymetrix).

[2] = target: T1, Nuc2 (reconstituted nucleosome with five match sequences for Bi-PIP2) / recombinant human P300 (Homo sapiens, UniProt Q09472); experiment: HAT reaction-in vitro ChIP-qPCR with recombinant P300, acetylation of Nuc2; type: biochemical; conditions: 100 nM compound, mixture of Nuc1 and Nuc2
T1 construct: 10 nM recombinant human P300 (amino acids 965-1810); purchased BPS Bioscience 50071
T1 sequence (Q09472 965-1810): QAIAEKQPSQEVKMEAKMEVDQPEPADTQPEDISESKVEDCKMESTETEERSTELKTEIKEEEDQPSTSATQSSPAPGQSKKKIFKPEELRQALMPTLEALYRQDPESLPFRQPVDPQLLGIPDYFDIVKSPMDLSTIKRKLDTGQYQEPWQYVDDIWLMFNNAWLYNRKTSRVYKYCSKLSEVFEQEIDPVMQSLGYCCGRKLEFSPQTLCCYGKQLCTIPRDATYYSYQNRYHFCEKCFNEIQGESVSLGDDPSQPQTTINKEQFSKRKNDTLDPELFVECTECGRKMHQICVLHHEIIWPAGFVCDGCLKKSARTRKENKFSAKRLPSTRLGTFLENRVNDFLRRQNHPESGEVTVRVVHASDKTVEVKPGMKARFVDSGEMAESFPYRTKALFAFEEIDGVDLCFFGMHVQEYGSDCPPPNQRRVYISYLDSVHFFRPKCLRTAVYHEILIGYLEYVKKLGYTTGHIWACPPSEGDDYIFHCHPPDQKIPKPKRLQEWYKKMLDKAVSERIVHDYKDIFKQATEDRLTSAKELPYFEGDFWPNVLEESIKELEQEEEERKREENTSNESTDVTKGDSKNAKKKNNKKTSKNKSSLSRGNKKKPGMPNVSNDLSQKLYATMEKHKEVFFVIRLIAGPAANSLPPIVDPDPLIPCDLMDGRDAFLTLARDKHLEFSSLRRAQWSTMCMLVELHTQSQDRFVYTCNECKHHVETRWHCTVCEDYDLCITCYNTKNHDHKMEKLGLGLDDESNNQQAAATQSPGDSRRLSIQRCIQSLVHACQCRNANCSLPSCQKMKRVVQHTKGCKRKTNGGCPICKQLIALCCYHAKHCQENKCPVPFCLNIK
From the text: (§1) To test sequence-selective histone acetylation by Bi-PIP, a biochemical assay (HAT reaction-in vitro ChIP-qPCR) was established by combining HAT reaction followed by immunoprecipitation utilizing reconstituted nucleosomes as reported previously (Nguyen et al., Nat. Methods 2014, 11, 834-40) and quantitative polymerase chain reaction (qPCR) (FIGS. 2A to 2C).
(§2) Mononucleosomes were reconstituted utilizing a salt-dialysis method from a histone octamer and DNA templates that each have a Widom 601 nucleosome positioning sequence and five PIP-binding sequences: 5′-AACAGTCA-3′ for Bi-PIP1 and 5′-AGCCGCCA-3′ for Bi-PIP2 (FIG. 2A). Gel electrophoresis confirmed that the majority of DNA templates were successfully formed on the nucleosome. […]
(§3) To a HAT reaction (15 μL), 85 μL of an AB buffer (20 mM Tris-HCl, pH 7.5, 50 mM NaCl, 5 mM EDTA) containing 1/500 volume of anti-acetylated H3 (Abcam, ab47915) was added and rotated for 1 hour at room temperature. […] The DNA solution was diluted, and amount of the precipitated each nucleosome was measured by qPCR utilizing SYBR FAST qPCR Kit (Kapa Bioscience) on LightCycler 480 (Roche Diagnostics GmbH) (FIG. 2B). Cp values were determined by the 2nd derivative maximum method and relative […] amount was calculated by the ΔΔCp method. […]

[3] = system: Nuc1 / HeLa nuclear extract; experiment: HAT reaction-in vitro ChIP-qPCR with HeLa nuclear extract as HAT resource, Nuc1; type: biochemical, human; conditions: 100 nM compound; HeLa nuclear extract 2% v/v; FIG. 6
[4] = target: T2, Nuc1 (reconstituted nucleosome with five match sequences for Bi-PIP1) / recombinant human P300 (Homo sapiens, UniProt Q09472); experiment: HAT reaction-in vitro ChIP-qPCR with recombinant P300, acetylation of Nuc1; type: biochemical; conditions: mixture of Nuc1 and Nuc2
T2 construct: 10 nM recombinant human P300 (amino acids 965-1810); purchased BPS Bioscience 50071
T2 sequence (Q09472 965-1810): T1 sequence (Q09472 965-1810)
From the text: as §1, §2, §3

[5] = target: T3, Nuc1 histones / recombinant human P300 (Homo sapiens, UniProt Q09472); experiment: HAT reaction followed by LC-MS/MS analysis of histone peptides; type: biochemical; conditions: 2.5 μM vs 0 compound, Nuc1 500 nM, P300 50 nM, Ac-CoA 10 μM
T3 construct: 10 nM recombinant human P300 (amino acids 965-1810); purchased BPS Bioscience 50071
T3 sequence (Q09472 965-1810): T1 sequence (Q09472 965-1810)
Description: Histone acetylation with Bi-PIP was directly confirmed by mass spectrometry analysis. After HAT reaction using Nuc1 (500 nM), B PIP1 (0 or 2.5 μM), recombinant human P300 (50 nM) and Ac-CoA (10 μM), the histones were processed through propionylation of unmodified lysine, tryptic digestion, and propionylation of terminal amine. The resulting peptides were analyzed by liquid chromatography-tandem mass spectrometry (LC-MS/MS).

SMILES	downregulated transcripts [1]	most upregulated protein-coding gene among uniquely activated transcripts [1]	upregulated transcripts [1]	change in global gene expression (in words) [1]	transcripts commonly upregulated by both Bi-PIP1 and Bi-PIP2 [1]	acetylation of Nuc2 (anti-acetylated H3 ChIP-qPCR) ([2]; 10 nM P300 (amino acids 965-1810), FIG. 5)	acetylation of Nuc1 in nuclear extract [3]	acetylation of Nuc1 (anti-acetylated H3 ChIP-qPCR) ([4]; 100 nM compound, P300 0, 1, 3, 10, 30, 100 nM, FIG. 3)	acetylation of target nucleosome Nuc1 (anti-acetylated H3 ChIP-qPCR) ([4]; 100 nM each compound, 10 nM P300 (amino acids 965-1810), FIG. 4)	acetylation of Nuc2 (anti-acetylated H3 ChIP-qPCR) ([2]; P300 0, 1, 3, 10, 30, 100 nM, FIG. 3)	acetylation in the N-terminal region of histone H4 (H4K5ac, H4K8ac, H4K12ac) [5]	signal intensity of peptides containing acetyl lysine at the N-terminal tail region of H3 (H3K14ac, H3K18ac, H3K23ac, H3K27ac, H3K36ac) [5]
Cc1noc(C)c1-c1ccc2c(c1)nc(CCc1ccc(OCCNC(=O)CCCCC(=O)NCCOCCOCC(=O)NCCOCCOCC(=O)Nc3cn(C)c(C(=O)Nc4cn(C)c(C(=O)NCCC(=O)Nc5cn(C)c(C(=O)Nc6cn(C)c(C(=O)Nc7cc(C(=O)NCCCC(=O)Nc8cn(C)c(C(=O)Nc9cc(C(=O)NCCC(=O)Nc%10cn(C)c(C(=O)Nc%11cc(C(=O)Nc%12cc(C(=O)NCCCN(C)C)n(C)c%12)n(C)c%11)n%10)n(C)c9)n8)n(C)c7)n6)n5)n4)n3)cc1)n2CCN1CCOCC1 [Bi-PIP2]	137	IER5L	446	greater transcriptome changes	247	selective acetylation of Nuc2	–	–	–	–	–	–
Cc1noc(C)c1-c1ccc2c(c1)nc(CCc1ccc(OCCNC(=O)CCCCC(=O)NCCOCCOCC(=O)NCCOCCOCC(=O)Nc3cn(C)c(C(=O)Nc4cc(C(=O)Nc5cc(C(=O)NCCC(=O)Nc6cn(C)c(C(=O)Nc7cc(C(=O)NCCCC(=O)Nc8cc(C(=O)Nc9cc(C(=O)NCCC(=O)Nc%10cn(C)c(C(=O)Nc%11cc(C(=O)Nc%12cc(C(=O)NCCCN(C)C)n(C)c%12)n(C)c%11)n%10)n(C)c9)n(C)c8)n(C)c7)n6)n(C)c5)n(C)c4)n3)cc1)n2CCN1CCOCC1 [Bi-PIP1]	258	NTS	473	greater transcriptome changes	247	–	enhanced acetylation of Nuc1	induced intensive acetylation	Nuc1-selective acetylation	acetylation was not induced	acetylation was promoted	increase in the signal intensity
